Source: paper PMC11855827, “High-Throughput Screening of Five Compound Libraries for Anthelmintic Activity and Toxicity Leads to the Discovery of Two Flavonoid Compounds” (International Journal of Molecular Sciences, 2025)
Read-outs that look alike come from different tables or passages of the source.

Test system: C. elegans
Test: microbe, parasite or virus in culture
Details: Caenorhabditis elegans
[1] = 0 h, read-out: Percentage of motility inhibition 0 h, Table S2, C. elegans SS assay, 110 μM, 0 h, averages of 4 data points
[2] = 24 h, read-out: Percentage of motility inhibition 24 h, Table S2, C. elegans SS assay, 110 μM, 24 h, averages of 4 data points
[3] = 0 h, read-out: Percentage of motility inhibition 0 h
[4] = 24 h, read-out: Percentage of motility inhibition 24 h

For `COc1cc2c3c(c1OC)-c1ccccc1C[C@H]3N(C)CC2` [Nuciferine], the inhibition at 110 µM [1] was 0% and the inhibition at 110 µM [2] was 16%.
With `COc1ccc2c(O[C@@H]3C[C@H]4C(=O)N[C@]5(C(=O)NS(=O)(=O)C6CC6)C[C@H]5/C=C\CCCCN(C)C(=O)[C@@H]4C3)cc(-c3nc(C(C)C)cs3)nc2c1C` [Simeprevir] the inhibition at 110 µM [1] was 2% and the inhibition at 110 µM [2] was 25%.
In the case of `C=C1C(=O)O[C@@H]2C[C@@]3(C)[C@@H](O)C[C@@H](O)C(=C)[C@@H]3C[C@H]12` [Granilin], the inhibition at 110 µM [1] is reported as 4% and the inhibition at 110 µM [2] is reported as 13%.
Molecule `CC(=O)OC(C)(C)C1CC=C(C)CC1` (stereo not drawn) [α-Terpinyl acetate] has an inhibition at 110 µM [1] of 18% and an inhibition at 110 µM [2] of 28%.
`Cc1ncc([N+](=O)[O-])n1CCO` [Metronidazole] gave an inhibition at 110 µM [1] of 34% and an inhibition at 110 µM [2] of 14%.
`COc1ccc(C[C@@H]2c3cc(Oc4cc(C[C@@H]5c6cc(O)c(OC)cc6CCN5C)ccc4O)c(OC)cc3CCN2C)cc1` [Isoliensinine] gave an inhibition at 110 µM [3] of 3% and an inhibition at 110 µM [4] of 17%.
Work on `CC(=O)O[C@H]1C(=O)[C@@]2(C)[C@H]([C@H](OC(=O)c3ccccc3)[C@]3(O)C[C@H](O)C(C)=C1C3(C)C)[C@]1(OC(C)=O)CO[C@@H]1C[C@@H]2O` [Baccatin III] yielded an inhibition at 110 µM [1] of 0% and an inhibition at 110 µM [2] of 0%.
For `c1ccc2c(Cc3c[nH]c4ccccc34)c[nH]c2c1` [3,3'‐Diindolylmethane], the inhibition at 110 µM [1] was 0% and the inhibition at 110 µM [2] was 7%.
Molecule `COc1ccc(-c2oc3c(CC=C(C)C)c(O)cc(O)c3c(=O)c2O)cc1` [Icaritin] has an inhibition at 110 µM [1] of 0% and an inhibition at 110 µM [2] of 2%.
`CS(=O)(=O)c1ccc([C@@H](O)[C@@H](CO)NC(=O)C(Cl)Cl)cc1` [Thiamphenicol] showed an inhibition at 110 µM [1] of 24% and an inhibition at 110 µM [2] of 1%.
In the case of `Nc1ccc(S(=O)(=O)Nc2ccnn2-c2ccccc2)cc1` [Sulfaphenazole], the inhibition at 110 µM [1] is reported as 0% and the inhibition at 110 µM [2] is reported as 3%.
Molecule `CC1(C)CC[C@]2(C(=O)O)CC[C@]3(C)C(=CC[C@@H]4[C@@]5(C)CCC(=O)C(C)(C)[C@@H]5CC[C@]43C)[C@@H]2C1` [Oleanonic acid] has an inhibition at 110 µM [3] of 15%.
For `CN(C)[C@@H]1C(O)=C(C(N)=O)C(=O)[C@@]2(O)C(O)=C3C(=O)c4c(O)cccc4[C@@](C)(O)[C@H]3C[C@@H]12` [Tetracycline], the inhibition at 110 µM [1] was 39% and the inhibition at 110 µM [2] was 46%.
`O=C(O)[C@H]1O[C@@H](Oc2cc3oc(-c4ccc(O)cc4)cc(=O)c3c(O)c2O)[C@H](O)[C@@H](O)[C@@H]1O` [Scutellarin] gave an inhibition at 110 µM [1] of 31% and an inhibition at 110 µM [2] of 1%.
`Cc1ncc(CO)c(CO)c1O` [Pyridoxine] was tested, and the inhibition at 110 µM [1] was 8% and the inhibition at 110 µM [2] was 0%.
`C[C@@H]1O[C@@H](OC[C@H]2O[C@@H](Oc3cc(O)c4c(=O)cc(-c5ccc(O)cc5)oc4c3)[C@H](O)[C@@H](O)[C@@H]2O)[C@H](O)[C@H](O)[C@H]1O` [Isorhoifolin] gave an inhibition at 110 µM [1] of 0% and an inhibition at 110 µM [2] of 20%.
In the case of `CC1CCc2cc(F)cc3c(=O)c(C(=O)O)cn1c23` (centres unmarked) [Flumequine], the inhibition at 110 µM [1] is reported as 20% and the inhibition at 110 µM [2] is reported as 21%.
With `COc1c(/C=C/C(=O)c2ccc(O)c(CC=C(C)C)c2)ccc(O)c1O` [Licochal cone D] the inhibition at 110 µM [1] was 15% and the inhibition at 110 µM [2] was 0%.
`C=C1C[C@@]23CC[C@H]4[C@@](C)(CCC[C@@]4(C)C(=O)O[C@@H]4O[C@H](CO)[C@@H](O)[C@H](O)[C@H]4O)[C@@H]2CC[C@]1(O[C@@H]1O[C@H](CO)[C@@H](O)[C@H](O)[C@H]1O[C@@H]1O[C@@H](C)[C@H](O)[C@@H](O)[C@H]1O)C3` [Dulcoside A] was tested, and the inhibition at 110 µM [1] was 0% and the inhibition at 110 µM [2] was 11%.
`CC(C)(C)C#Cc1cc(N(C(=O)[C@H]2CC[C@H](C)CC2)[C@H]2CC[C@H](O)CC2)c(C(=O)O)s1` [VX‐222] gave an inhibition at 110 µM [1] of 48% and an inhibition at 110 µM [2] of 57%.
`CC/C=C\C/C=C\C/C=C\C/C=C\C/C=C\CCCC(=O)O` [Eicosapentaenoic Acid] showed an inhibition at 110 µM [1] of 0% and an inhibition at 110 µM [2] of 4%.
`CC[C@H](C)[C@H](N)C(=O)O` [L-Isoleucine] gave an inhibition at 110 µM [1] of 14% and an inhibition at 110 µM [2] of 17%.
Molecule `COc1ccc(-c2cc(=O)c3c(O)c(OC)c(OC)cc3o2)cc1O` [Eupatorin] has an inhibition at 110 µM [1] of 7% and an inhibition at 110 µM [2] of 26%.
With `CN1CCc2cc3c(c4c2C1Cc1ccccc1-4)OCO3` (centres unmarked) [Roemerine] the inhibition at 110 µM [1] was 0% and the inhibition at 110 µM [2] was 0%.
For `CC(C)=CC/C=C(\C)[C@H]1CC[C@]2(C)[C@@H]1[C@H](O)C[C@@H]1[C@@]3(C)CC[C@H](O[C@@H]4O[C@H](CO)[C@@H](O)[C@H](O)[C@H]4O[C@@H]4O[C@H](CO)[C@@H](O)[C@H](O)[C@H]4O)C(C)(C)[C@@H]3CC[C@]12C` [Ginsenoside Rg5], the inhibition at 110 µM [1] was 0% and the inhibition at 110 µM [2] was 2%.
Work on `C[C@@H](O)[C@H]1C(=O)N2C(C(=O)[O-])=C(SC3Cn4cnc[n+]4C3)[C@H](C)[C@H]12` (some centres unmarked) [Biapenem] yielded an inhibition at 110 µM [1] of 18% and an inhibition at 110 µM [2] of 3%.
`O=c1[nH]c(=O)n([C@H]2C[C@H](O)[C@@H](CO)O2)cc1I` [Idoxuridine] gave an inhibition at 110 µM [1] of 38% and an inhibition at 110 µM [2] of 11%.
`O=C(Nc1ccc(Cl)cc1)Nc1ccc(Cl)c(Cl)c1` [Triclocarban] was tested, and the inhibition at 110 µM [1] was 15% and the inhibition at 110 µM [2] was 20%.
Work on `CC=C1CN(C)C2Cc3c([nH]c4ccccc34)C(c3cc4[nH]c5c(c4cc3OC)CCN3CC4CC(CC)C3C5(C(=O)OC)C4)CC1C2C(=O)OC` (centres unmarked) [Voacamine] yielded an inhibition at 110 µM [1] of 0% and an inhibition at 110 µM [2] of 0%.
`CC1(C)CC[C@]2(C(=O)O[C@@H]3O[C@H](CO)[C@@H](O)[C@H](O)[C@H]3O)CC[C@]3(C)C(=CC[C@@H]4[C@@]5(C)CC[C@H](O[C@@H]6O[C@H](C(=O)O)[C@@H](O)[C@H](O)[C@H]6O)C(C)(C)[C@@H]5CC[C@]43C)[C@@H]2C1` [Chikusetsusaponin Iva] gave an inhibition at 110 µM [1] of 5% and an inhibition at 110 µM [2] of 14%.
With `CC(=O)N[C@H]1[C@H]([C@H](O)[C@H](O)CO)OC(C(=O)O)=C[C@@H]1N=C(N)N` [Zanamivir] the inhibition at 110 µM [1] was 22% and the inhibition at 110 µM [2] was 6%.
With `C[C@@H]1[C@H]2c3cc4c(cc3O[C@@]35OCOC3=CC(=O)[C@H](C[C@H]1C)[C@@H]25)OCO4` [Sauchinone] the inhibition at 110 µM [1] was 18% and the inhibition at 110 µM [2] was 25%.
Molecule `CCCCC(C#N)(Cn1cncn1)c1ccc(Cl)cc1` (centres unmarked) [Myclobutanil] has an inhibition at 110 µM [1] of 30% and an inhibition at 110 µM [2] of 12%.
`c1cncc([C@@H]2CCCCN2)c1` [Anabasine] was tested, and the inhibition at 110 µM [1] was 0% and the inhibition at 110 µM [2] was 0%.
`COc1ccc(-c2cc(=O)c3c(O)c(OC)c(OC)c(OC)c3o2)cc1` [Gardenin B] gave an inhibition at 110 µM [1] of 6% and an inhibition at 110 µM [2] of 0%.
In the case of `CC(=O)OCC1=C[C@@H]2OC(=O)C3=CO[C@@H](O[C@@H]4O[C@H](CO)[C@@H](O)[C@H](O)[C@H]4O)[C@H]1[C@@H]32` [Asperuloside], the inhibition at 110 µM [1] is reported as 0% and the inhibition at 110 µM [2] is reported as 5%.
For `CCN1C[C@]2(COC)CC[C@H](OC)[C@]34C1[C@H](C[C@H]23)[C@@]1(O)C[C@H](OC)[C@H]2C[C@@H]4[C@@H]1[C@H]2O` [Talatisamine], the inhibition at 110 µM [1] was 6% and the inhibition at 110 µM [2] was 0%.
`c1cncc(C2=NCCC2)c1` [Myosmine] was tested, and the inhibition at 110 µM [1] was 18% and the inhibition at 110 µM [2] was 24%.
With `C[C@@H]1O[C@@H](Oc2cc(O)c3c(=O)c(O[C@@H]4O[C@@H](C)[C@H](O)[C@@H](O)[C@H]4O)c(-c4ccc(O)cc4)oc3c2)[C@H](O)[C@H](O)[C@H]1O` [Kaempferitrin] the inhibition at 110 µM [1] was 4% and the inhibition at 110 µM [2] was 16%.
Molecule `COc1c(O)cc2oc(-c3ccc(O)cc3)cc(=O)c2c1O` [Hispidulin] has an inhibition at 110 µM [3] of 0% and an inhibition at 110 µM [4] of 33%.
`C=C[C@]1(C)C[C@@H](OC(=O)CS[C@@H]2C[C@H]3CC[C@@H](C2)N3C)[C@]2(C)[C@H](C)CC[C@]3(CCC(=O)[C@H]32)[C@@H](C)[C@@H]1O` [Retapamulin] showed an inhibition at 110 µM [1] of 27% and an inhibition at 110 µM [2] of 9%.
For `COc1cc([C@@H]2c3cc4c(cc3[C@H](O)[C@H]3COC(=O)[C@H]23)OCO4)cc(OC)c1OC` [Podofilox], the inhibition at 110 µM [1] was 0% and the inhibition at 110 µM [2] was 9%.
`Cc1nc(C)c(C)nc1C` [Ligustrazine] was tested, and the inhibition at 110 µM [1] was 0% and the inhibition at 110 µM [2] was 2%.
`C[C@H]1[C@H](C)CC[C@]2(C)CC[C@]3(C)C(=CC[C@@H]4[C@@]5(C)CC[C@@H](O)[C@](C)(C(=O)O)[C@@H]5CC[C@]43C)[C@H]12` [β-Boswellic acid] gave an inhibition at 110 µM [3] of 32% and an inhibition at 110 µM [4] of 22%.
For `C=C1C(=O)[C@@]23[C@H](O)C[C@@H]4C(C)(C)CC[C@H](O)[C@@]4(CO)[C@@H]2CC[C@@H]1[C@H]3O` [Kamebakaurin], the inhibition at 110 µM [1] was 0% and the inhibition at 110 µM [2] was 11%.
`CNC(=O)Oc1ccccc1OC(C)C` [Propoxur] was tested, and the inhibition at 110 µM [1] was 16% and the inhibition at 110 µM [2] was 9%.
Molecule `Cc1cn([C@H]2O[C@@H](CO)[C@H](O)[C@H]2F)c(=O)[nH]c1=O` [Clevudine] has an inhibition at 110 µM [1] of 2% and an inhibition at 110 µM [2] of 0%.
`COc1cc(C(=O)OCCCCNC(=N)N)cc(OC)c1O` [Leonurine] was tested, and the inhibition at 110 µM [1] was 0% and the inhibition at 110 µM [2] was 0%.
For `CC[C@@H]1CN2CC[C@@]3(C(=O)Nc4ccccc43)[C@@H]2C[C@@H]1/C(=C\OC)C(=O)OC` [Corynoxine], the inhibition at 110 µM [1] was 3% and the inhibition at 110 µM [2] was 3%.
`O=c1c2ccccc2nc2n1CCc1c-2[nH]c2ccccc12` [Rutaecarpine] gave an inhibition at 110 µM [1] of 0% and an inhibition at 110 µM [2] of 24%.
`CNC(=O)c1cccnc1` [N‐Methylnicotinamide] gave an inhibition at 110 µM [1] of 3% and an inhibition at 110 µM [2] of 0%.
`C[C@H](CCC(=O)O)[C@H]1CC[C@H]2[C@@H]3[C@H](O)C[C@@H]4C[C@H](O)CC[C@]4(C)[C@H]3C[C@H](O)[C@]12C` [Cholic acid] showed an inhibition at 110 µM [3] of 0% and an inhibition at 110 µM [4] of 8%.
In the case of `O=C(O)CCCC[C@@H]1SC[C@@H]2NC(=O)N[C@@H]21` [Biotin], the inhibition at 110 µM [3] is reported as 14% and the inhibition at 110 µM [4] is reported as 12%.
`CC1(C)CC[C@]2(C(=O)O)[C@H](O)C[C@]3(C)C(=CC[C@@H]4[C@@]5(C)CC[C@H](O)[C@@](C)(C=O)[C@@H]5CC[C@]43C)[C@@H]2C1` [Quillaic acid] was tested, and the inhibition at 110 µM [1] was 14% and the inhibition at 110 µM [2] was 16%.
